Results: patent US10485795B2, “FXR (NR1H4) binding and activity modulating compounds” (Gilead Sciences, Inc., priority 2011, dated 2019)
≈ marks a conversion by molar mass, not a printed value.

Experiments:
Aqueous solubility assay = format: physicochemical; conditions: PBS buffer, kinetic from dmso stock, pH 7.4, theoretical final concentration of 200 μM
Method: The aq. solubility in PBS, pH 7.4 was determined as follows. A 10 mM compound stock solution in DMSO was added to PBS (pH 7.4) to reach a theoretical final concentration of 200 μM. The resulting solution/suspension was shaken at 1250 rpm for 1 h and then stored in the dark at rt for 23 h. At this time any precipitate is separated from the solution by centrifugation at 3900 rpm for 30 min. The aq. solubility was determined by comparing the peak area of the principle peak in a calibration standard (200 μM) in an organic solvent (methanol/water 60:40, v/v) with the peak area of the corresponding peak in the buffer sample. As detection method was used HPLC-UV/VIS at 230 nm.

[1] = Parallel Artificial Membrane Permeation Assay (PAMPA); format: in vitro ADME; conditions: Flux (%) = (c acceptor well) / sum (c donor well + c acceptor well) × 100 × 2; PBS pH 7.4, 15-16 h at rt
Method: For the PAMPA, 5 mM stock solutions of test items were prepared in DMSO. 5 mM stock solutions of reference items were prepared in EtOH (carbamazepine, guanabenz) or in EtOH:H2O 1:1 (v/v) (ceftriaxone), respectively. Compounds were diluted in PBS (pH 7.4) to obtain the starting solutions containing 5% of the respective organic solvent and 250 μM reference compounds or 10 μM test items, respectively. For the assay, a modified procedure of the PAMPA as described by Kansy et al. Kansy et al. (J. Med. Chem. 1998, 41, 1007) was used. The reference compounds for low (ceftriaxone), medium (guanabenz) and high permeation (carbamazepine) were included as internal controls.
Permeation experiments were carried out in a Multiscreen 96 well tray (donor) covered by a 96-well Multiscreen Immobilon (acceptor). The hydrophobic filter material of the Immobilon plate was pre-wetted with 70% ethanol and treated with a solution of lipids (lecithin dissolved in dodecane). The donor plate was filled with test compounds and reference compounds and both plates were inserted into each other and placed onto an orbital shaker for 15 min at 100 rpm. The transport study was started by applying 150 μL PBS-buffer containing the test and reference compounds to the donor plate. After 15-16 h of diffusion at rt, the contents of the acceptor and donor plate were collected and quantified using LC/MS-detection (test items) or by UV spectroscopy using a Spectramax Plus^384 (Molecular Devices) (reference items). The absorption maxima for the reference items ceftriaxone, guanabenz and carbamazepine were 240 nm, 270 nm and 286 nm, respectively. Recovery samples were prepared as described for the permeation assay samples and were incubated in representative vials during the permeation period under the same conditions.
For LC/MS analysis of the test items, 100 μL incubate were removed from acceptor and donor compartment and processed for acetonitrile (ACN) precipitation as described below. Additionally, test item samples from the lipid layer were extracted by flushing each well two times with 150 μL EA. The solutions were collected in 1.5 mL reaction tubes and the solvent was evaporated. The dried residues were resuspended in a PBS/DMSO/ACN mixture reflecting the composition of the acceptor and donor samples (i.e. 100 μL buffer supplemented with 5% DMSO, 200 μL ACN+ISTD). The final solvent content of each sample was 66% ACN.
Samples from donor and acceptor compartments and calibration standards were precipitated by addition of 200 μL ACN/ISTD or 400 μL ACN/ISTD, respectively. After vigorous shaking (10 seconds) and centrifugation (5 min at 4800×g, rt), the particle free supernatants were subjected to LC-MS/MS. Membrane compartments were extracted as described above. […]

| solubility at 24 h (Aqueous solubility assay) [µM] | PAMPA, Membrane permeability in % Flux [1] [% Flux] | SMILES |
| --- | --- | --- |
| 195 (≈ 114 µg/mL) |  | O=C(O)c1cccc(N2CC(O)(c3ccc(OCc4c(-c5c(Cl)cccc5Cl)noc4C4CC4)cc3Cl)C2)c1 |
| 192 (≈ 112 µg/mL) | 21.1 | O=C(O)c1ccc(C2CC(O)(c3ccc(OCc4c(-c5c(Cl)cccc5Cl)noc4C4CC4)cc3Cl)C2)cc1 (stereo not drawn) |
| 192 (≈ 112 µg/mL) | 24.0 | O=C(O)c1cccc([C@H]2C[C@](O)(c3ccc(OCc4c(-c5c(Cl)cccc5Cl)noc4C4CC4)cc3Cl)C2)c1 [drawing 47] |
| 20 (≈ 11.1 µg/mL) | 13.6 | O=C(O)c1cccc(C2CC2c2ccc(OCc3c(-c4c(Cl)cccc4Cl)noc3C3CC3)cc2Cl)c1 (stereo not drawn) [reference compound] |
| 72 (≈ 39.9 µg/mL) | 20.7 | O=C(O)c1ccc(C2CC2c2ccc(OCc3c(-c4c(Cl)cccc4Cl)noc3C3CC3)cc2Cl)cc1 (stereo not drawn) [reference compound] |
